In article PMC4801149 (Drug Design, Development and Therapy, 2016):
Where two headings read alike, the source gives them in different places.

Experiments:
[1] = tested on: BGC823 xenograft
[2] = target: other CDKs; experiment: Kinase assay in vitro, other CDKs overall; type: biochemical; details: read-out: IC50 values for inhibition of other CDKs; CDKs other than CDK7
[3] = tested on: BGC823 cells; experiment: Transwell cell migration assay; type: cell-based, Human; details: 24 hours, dose-dependent, P<0.05
[4] = tested on: BGC823 cells; experiment: Matrigel-coated transwell invasion assay; type: cell-based, Human; details: 24 hours, matrigel-coated transwells, dose-dependent, P<0.05
[5] = tested on: BGC823 cells; experiment: Apoptosis by flow cytometry; type: cell-based, Human; details: compared to control, dose- and time-dependent, P<0.05
[6] = tested on: BGC823 cells; experiment: Western blot of apoptosis and cell cycle proteins; type: cell-based, Human; details: P<0.05
[7] = tested on: BGC823 cells; experiment: Cell cycle distribution by flow cytometry; type: cell-based, Human
[8] = tested on: RNA polymerase II CTD serine 5 (P-Ser5), CDK7 phosphorylation site; experiment: Immunoblotting of RNA polymerase II CTD Ser5 phosphorylation; type: cell-based, Human; details: BGC823 whole cell lysates, 4 hours
[9] = cited from earlier work

SMILES	mice died in additional 30-day survival observation ([1]; roscovitine 20 mg/kg/d for 14 days, five of ten) [%]	IC50 [2] [nM]	cell migration ability [3]	cell invasion ability [4]	apoptotic cells [5]	XIAP expression [6]	cyclin D1 expression [6]	Bax expression ([6]; compared to control)	Bcl-2 level ([6]; compared to control)	caspase-3 expression ([6]; compared to control)	cell population in S and G2/M phases [7]	cells in G0/G1 [7]	phosphorylation of the RNA polymerase II CTD at serine 5 (P-Ser5) [8]	mice body weights, difference between groups ([1]; 14-day observation, 10 or 20 mg/kg/d ip)	mice died in additional 30-day survival observation ([1]; BS-181 10 mg/kg/d ip for 14 days, six of ten) [%]	mice died in additional 30-day survival observation ([1]; BS-181 20 mg/kg/d ip for 14 days, three of ten) [%]	toxicity ([1]; daily dose of 10 mg/kg or 20 mg/kg ip, 14 days)	tumor growth ([1]; ip twice daily, 10 or 20 mg/kg/d, 14 days, dose-dependent, compared to control, P<0.05)	tolerability ([9]; dose of 10 mg/kg/d or 20 mg/kg/d, BALB/c-nu mice)	maximum tolerated single dose ([9]; given intraperitoneally) [mg/kg/day]
CC[C@H](CO)Nc1nc(NCc2ccccc2)c2ncn(C(C)C)c2n1 [Roscovitine, roscovitine]	50																			
CC(C)c1cnn2c(NCc3ccccc3)cc(NCCCCCCN)nc12 [BS-181]		> 1000	significantly inhibited	significantly inhibited	Significant increases	significant reduction	significant reduction	significantly increased	reduced	significantly increased	reduction	increase	inhibited	no significant difference	60	30	no apparent toxicity	significantly inhibited	well-tolerated	30
